From PubChem BioAssay (NCI)
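Where inhibition never reached the appropriate level, the endpoint shown equals the highest concentration tested. Otherwise, values were interpolated linearly from a five-concentration, 48-hour dose response in 96-well plates. TGI: concentration producing complete growth inhibition.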

Key:
Assay in all cases: NCI-60 cell line screen, 48 h
[1] = system: DLD-1 colon
[2] = system: DMS 114 small cell lung
[3] = system: DMS 273 small cell lung
[4] = system: HOP-18 NSCLC
[5] = system: KM20L2 colon
[6] = system: M19-MEL melanoma
[7] = system: SNB-78 CNS
[8] = system: LXFL 529 NSCLC
[9] = system: RXF-631 renal

| Structure (SMILES) | TGI [1] [µM] | TGI [2] [µM] | TGI [3] [µM] | TGI [4] [µM] | TGI [5] [µM] | TGI [6] [µM] | TGI [7] [µM] | TGI [8] [µM] | TGI [9] [µM] |
| --- | --- | --- | --- | --- | --- | --- | --- | --- | --- |
| COc1ccc(C2Cc3cc(OC)c(OC)c(OC)c3C2=O)cc1 (stereo not given) | > 100 | > 100 | > 100 | > 100 | > 100 | > 100 | > 100 |  |  |
| Cc1cc(=O)[nH]c(CNC(=O)c2cccc3ccccc23)n1 | > 100 |  | > 100 |  | > 100 | > 100 | > 100 | > 100 |  |
| O=C1CCCCC1C1(O)C(=O)Nc2cc(F)ccc21 (stereo not given) | > 100 | > 100 | > 100 | > 100 | > 100 | > 100 | > 100 | > 100 |  |
| O=S1(=O)COc2ccccc2-c2ncncc21 | > 100 | > 100 |  | > 100 | > 100 | > 100 | > 100 | > 100 | > 100 |
| O=C(CC(=O)C(=O)CC(=O)OCc1ccccc1)OCc1ccccc1 | > 100 | > 100 |  |  | > 100 | > 100 |  | > 100 |  |
| CC(C)Cc1ccc(C(C)/C=C2\CCC(CN3CCOCC3)C2=O)cc1 (stereo not given) | 9.36 | 42.4 |  | 19.2 | 31.5 | 28.8 | > 72.8 | 4.09 | 41.2 |
| Cc1cc(=O)cc2sc3cc(Cl)ccc3nc1-2 | > 100 |  | 24.6 | > 100 | 30.1 | 31.2 | > 100 | > 100 |  |
| Cc1nc2ccc(N=Nc3c(O)ccc4ccccc34)cc2[nH]1 | 66.2 | 63 | 33.5 |  | > 100 | 42.7 | > 100 | 37.3 |  |
| CC(C)CC(=O)N1CCN(C(=O)CC(C)C)c2ccccc21 | > 100 | > 100 | > 100 | > 100 | > 100 | > 100 | > 100 | > 100 | > 100 |
| N#Cc1ccc(Nc2cnc3cc(N)ccc3n2)cc1 | > 100 | > 100 | > 100 |  | > 100 | > 100 | > 100 | > 100 |  |
| CC(=O)N(/N=C\c1ccc([N+](=O)[O-])cc1)c1ccccc1 | > 100 | > 100 | > 100 | > 100 | > 100 | > 100 | > 100 |  | > 100 |
| CC(=O)NC(ON1C(=O)COc2ccccc21)C(Cl)(Cl)Cl (stereo not given) | > 100 |  | > 100 |  | > 100 |  | > 100 | > 100 |  |
| CCN(CC)CC(O)CNc1ccc(NCC(O)CCl)c2c1C(=O)c1ccccc1C2=O (stereo not given) | 38.9 |  | 13.6 |  | 18.5 | 22.1 | 22.8 | 15.8 |  |
| COC1=C(C)C(=O)C2C(C1=O)C(c1ccc(OC)c(OC)c1)[C@H]2C (stereo not given in full) | > 100 |  | > 100 |  |  | > 100 | > 100 | > 100 | > 100 |
| CCCCCCCCCCCCCCCCc1c(C(=O)OC)[nH]c(=S)[nH]c1=O | > 50 |  | > 50 | > 50 | > 50 | > 50 | > 50 | > 50 | > 50 |
| Cc1ccc(/C=C/C(=O)c2sc(C(N)=S)nc2C)cc1 | > 100 |  | > 100 | > 100 | > 100 | > 100 | > 100 |  |  |
| Cn1nc(-c2ccccc2)c(C(=O)/C=C/c2ccccc2)c(N2CCCCC2)c1=O | > 100 | > 100 | > 100 | > 100 | > 100 |  |  | > 100 | > 100 |
| CSc1nc2nc(C)c(C)nc2c(=O)[nH]1 | > 100 | > 100 | > 100 | > 100 | > 100 | > 100 |  | > 100 |  |
| COc1ccc(Cc2cc(OC)c(OC)c(OC)c2)cc1O | > 100 | 0.137 | > 100 | > 31.6 | > 100 | > 100 |  | > 100 | > 100 |
| O=[N+]([O-])c1ccccc1S(=O)(=O)c1ccccc1[N+](=O)[O-] | > 100 | > 100 | > 100 | > 100 | > 100 | > 100 | > 100 | > 100 |  |
| COc1ccc(NC(=O)CSc2nnc(Cc3ccccc3)o2)cc1 | > 100 | > 100 | > 100 | > 100 | > 100 | > 100 | > 100 | > 100 |  |
| Nc1ccccc1S(=O)c1ccccc1 (stereo not given) |  | > 100 | > 100 | > 100 | > 100 | > 100 |  | > 100 |  |
